The structures appear in SMILES notation.

Sequence of full-length recombinant human FYN A (P06241 whole entry): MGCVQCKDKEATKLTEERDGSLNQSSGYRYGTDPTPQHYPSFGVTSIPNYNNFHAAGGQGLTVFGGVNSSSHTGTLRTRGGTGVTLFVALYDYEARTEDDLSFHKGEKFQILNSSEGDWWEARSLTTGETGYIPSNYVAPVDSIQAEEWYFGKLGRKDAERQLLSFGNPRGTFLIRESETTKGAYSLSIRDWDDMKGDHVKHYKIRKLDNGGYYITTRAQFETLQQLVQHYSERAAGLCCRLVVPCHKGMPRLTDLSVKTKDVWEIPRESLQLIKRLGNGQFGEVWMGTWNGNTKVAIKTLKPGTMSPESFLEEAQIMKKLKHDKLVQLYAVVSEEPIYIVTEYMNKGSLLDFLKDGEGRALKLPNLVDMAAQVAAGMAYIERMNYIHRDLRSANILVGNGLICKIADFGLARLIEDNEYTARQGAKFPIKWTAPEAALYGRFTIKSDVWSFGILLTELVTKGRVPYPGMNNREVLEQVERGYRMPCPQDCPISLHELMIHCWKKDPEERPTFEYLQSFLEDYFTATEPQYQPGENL

This test addresses full-length recombinant human FYN A (Homo sapiens (Human), UniProt P06241). Description: ADP-Glo Kinase Assay of FYN kinase inhibition. Format: biochemical. To be noted: primary screen, initial compounds. Put shortly: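 ADP-Glo read-out of peptide phosphorylation after 90 min RT with 12.5 pmol ATP and 100 pg 12-mer substrate. Enzyme was N-GST full-length human FYN A from insect cells, 3 pg, pre-incubated 30 min with compound, 10 points from 10 μM top, 3-fold steps; IC50 from curve.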
In the case of `Cc1cc(-c2cnc(N)c(-c3ccc(CO)cc3)c2)cc(C)c1O` [382_0285_0315, 4-[6-amino-5-[4-(hydroxymethyl)phenyl]-3-pyridyl]-2,6-dimethyl-phenol], the IC50 was 4.64 µM. For `COc1cc(-c2cc(-c3ccccc3)cnc2N)ccc1O` [382_0314_0061, 4-(2-amino-5-phenyl-3-pyridyl)-2-methoxy-phenol], the IC50 is 1.48 µM. The same measure for `COc1cc(-c2cc(-c3cc(OC)c(OC)c(OC)c3)cnc2N)ccc1O` [382_0314_0087, 4-[2-amino-5-(3,4,5-trimethoxy-phenyl)-3-pyridyl]-2-methoxy-phenol]: 0.0806 µM; for `COc1cc(-c2cc(-c3ccc(F)c(Cl)c3)cnc2N)ccc1O` [382_0314_0164, 4-[2-amino-5-(3-chloro-4-fluoro-phenyl)-3-pyridyl]-2-methoxy-phenol]: 11.3 µM; for `COc1cc(-c2cc(-c3ccc(S(C)(=O)=O)cc3)cnc2N)ccc1O` [382_0314_0174, 4-[2-amino-5-(4-methylsulfonyl-phenyl)-3-pyridyl]-2-methoxy-phenol]: 0.349 µM. In the case of `COc1cc(-c2cc(-c3cccc(Cl)c3)cnc2N)ccc1O` [382_0314_0279, 4-[2-amino-5-(3-chlorophenyl)-3-pyridyl]-2-methoxy-phenol], the IC50 is 3.51 µM. For the compound `COc1ccc(-c2cnc(N)c(-c3ccc(O)c(OC)c3)c2)cc1` [382_0314_0280, 4-[2-amino-5-(4-methoxyphenyl)-3-pyridyl]-2-methoxy-phenol], the IC50 amounted to 4.16 µM. In the case of `COc1cc(-c2cc(-c3cccc(F)c3)cnc2N)ccc1O` [382_0314_0313, 4-[2-amino-5-(3-fluorophenyl)-3-pyridyl]-2-methoxy-phenol], the IC50 stood at 2.03 µM. On to `COc1cc(-c2cc(-c3cc(C)c(O)c(C)c3)cnc2N)ccc1O` [382_0314_0315, 4-[6-amino-5-(4-hydroxy-3-methoxy-phenyl)-3-pyridyl]-2,6-dimethyl-phenol], for which the IC50 amounted to 0.526 µM. The result for `COc1cc(-c2cc(-c3ccc(F)cc3)cnc2N)ccc1O` [382_0314_0339, 4-[2-amino-5-(4-fluorophenyl)-3-pyridyl]-2-methoxy-phenol] reads 3.24 µM; that for `COc1cc(-c2cc(-c3ccc(C)cc3)cnc2N)ccc1O` [382_0314_4139, 4-[2-amino-5-(p-tolyl)-3-pyridyl]-2-methoxy-phenol], 4.34 µM. Turning to `COc1cccc(-c2cnc(N)c(-c3ccc(O)c(OC)c3)c2)c1` [382_0314_4140, 4-[2-amino-5-(3-methoxyphenyl)-3-pyridyl]-2-methoxy-phenol], the IC50 was 1.2 µM. The result for `COCOc1ccc(-c2cc(-c3cccc(NC(C)=O)c3)cnc2N)cc1` [382_0341_0081] reads 1.55 µM; that for `COCOc1ccc(-c2cc(-c3cc(OC)c(OC)c(OC)c3)cnc2N)cc1` [382_0341_0087, 3-[4-(methoxymethoxy)phenyl]-5-(3,4,5-trimethoxy-phenyl)pyridin-2-amine], 1.9 µM; that for `COCOc1ccc(-c2cc(-c3cccc(CO)c3)cnc2N)cc1` [382_0341_0291, [3-[6-amino-5-[4-(methoxymethoxy)phenyl]-3-pyridyl]phenyl] methanol], 4.62 µM. The same measure for `COCOc1ccc(-c2cc(-c3ccc(C(N)=O)cc3)cnc2N)cc1` [382_0341_0346, 4-[6-amino-5-[4-(methoxy-methoxy)phenyl]-3-pyridyl] benzamide]: 3.42 µM. The same measure for `COCOc1ccc(-c2cc(-c3cccc(C(N)=O)c3)cnc2N)cc1` [382_0341_0347, 3-[6-amino-5-[4-(methoxymethoxy)phenyl]-3-pyridyl]benzamide]: 3.02 µM.

In the case of `CC(=O)Nc1cccc(-c2cnc(N)c(-c3ccc(O)cc3)c2)c1` [382_7249_0081, N-[3-[6-amino-5-(4-hydroxyphenyl)-3-pyridyl]phenyl] acetamide], the IC50 worked out at 0.838 µM. The result for `COc1cc(-c2cnc(N)c(-c3ccc(O)cc3)c2)cc(OC)c1OC` [382_7249_0087, 4-[2-amino-5-(3,4,5-trimethoxy-phenyl)-3-pyridyl]phenol] reads 0.209 µM; that for `CN(C)c1cccc(-c2cnc(N)c(-c3ccc(O)cc3)c2)c1` [382_7249_0135, 4-[2-amino-5-[3-(dimethylamino)phenyl]-3-pyridyl]phenol], 2.19 µM; that for `CS(=O)(=O)c1ccc(-c2cnc(N)c(-c3ccc(O)cc3)c2)cc1` [382_7249_0174, 4-[2-amino-5-(4-methylsulfonyl-phenyl)-3-pyridyl]phenol], 1.25 µM. The same measure for `COc1cccc(-c2cnc(N)c(-c3ccc(O)cc3)c2)c1` [382_7249_4140, 4-[2-amino-5-(3-methoxyphenyl)-3-pyridyl]phenol]: 3.49 µM; for `CN(C)CCNC(=O)c1ccc(-c2cn3c(-c4ccncc4)cnc3cn2)cc1` [388_0069_0327, N-(2-dimethylamino-ethyl)-4-[3-(4-pyridyl)imidazo [1,2-a]pyrazin-6-yl]benzamide]: 6.91 µM; for `c1ccc(-c2cn3c(-c4ccsc4)cnc3cn2)cc1` [388_0074_0061, 6-phenyl-3-(3-thienyl)imidazo [1,2-a]pyrazine]: 3.95 µM. The result for `c1cncc(-c2cn3c(-c4ccsc4)cnc3cn2)c1` [388_0074_0071, 6-(3-pyridyl)-3-(3-thienyl)imidazo [1,2-a]pyrazine] reads 4.34 µM. `OCc1ccc(-c2cn3c(-c4ccsc4)cnc3cn2)cc1` [388_0074_0285, [4-[3-(3-thienyl)imidazo [1,2-a]pyrazin-6-yl]phenyl] methanol]: the IC50 turned out to be 2.35 µM. On to `Cn1cc(-c2cn3c(-c4ccsc4)cnc3cn2)cn1` [388_0074_8400, 6-(1-methylpyrazol-4-yl)-3-(3-thienyl)imidazo [1,2-a]pyrazine], for which the IC50 came to 6.38 µM. For `CC(C)N1CCN(c2ccc(-c3cn4c(-c5ccc(O)cc5)cnc4cn3)cc2)CC1` [388_0080_0182, 4-[6-[4-(4-isopropyl-piperazin-1-yl)phenyl]imidazo [1,2-a]pyrazin-3-yl]phenol], the IC50 amounted to 0.637 µM. The result for `O=C(NCCO)c1cccc(-c2cn3c(-c4ccc(O)cc4)cnc3cn2)c1` [388_0080_0192, N-(2-hydroxy-ethyl)-3-[3-(4-hydroxyphenyl)imidazo[1,2-a]pyrazin-6-yl]benzamide] reads 1.03 µM; that for `CN1CCN(c2ccc(-c3cn4c(-c5ccc(O)cc5)cnc4cn3)cc2)CC1` [388_0080_0218, 4-[6-[4-(4-methyl-piperazin-1-yl)phenyl]imidazo [1,2-a]pyrazin-3-yl]phenol], 0.678 µM. The same measure for `O=C(NCCO)c1ccc(-c2cn3c(-c4ccc(O)cc4)cnc3cn2)cc1` [388_0080_0328, N-(2-hydroxyethyl)-4-[3-(4-hydroxyphenyl)imidazo[1,2-a]pyrazin-6-yl]benzamide]: 0.641 µM; for `CN(C)C(=O)c1cccc(-c2cn3c(-c4ccc(O)cc4)cnc3cn2)c1` [388_0080_0349, 3-[3-(4-hydroxyphenyl)imidazo[1,2-a]pyrazin-6-yl]-N,N-dimethyl-benzamide]: 0.974 µM. The same measure for `Oc1ccc(-c2cnc3cnc(-c4cnn(Cc5ccccc5)c4)cn23)cc1` [388_0080_7469, 4-[6-(1-benzylpyrazol-4-yl)imidazo[1,2-a]pyrazin-3-yl]phenol]: 6.62 µM; for `O=C(NC1CC1)c1ccc(-c2cn3c(-c4ccc(O)cc4)cnc3cn2)cc1` [388_0080_7489, N-cyclopropyl-4-[3-(4-hydroxyphenyl)imidazo[1,2-a]pyrazin-6-yl]benzamide]: 1.96 µM. Take `Nc1ccc(-c2cn3c(-c4ccc(O)cc4)cnc3cn2)cn1` [388_0080_7905, 4-[6-(6-amino-3-pyridyl)imidazo [1,2-a]pyrazin-3-yl]phenol]: the IC50 was determined as 1.93 µM. The result for `COc1cc(-c2cnc3cnc(-c4cccc(NS(C)(=O)=O)c4)cn23)cc(OC)c1OC` [388_0087_6488, N-[3-[3-(3,4,5-trimethoxyphenyl)imidazo[1,2-a]pyrazin-6-yl]phenyl] methane-sulfonamide] reads 2.8 µM; that for `COc1ccc(-c2cnc3cnc(-c4ccc(O)cc4)cn23)cc1` [388_0280_0080, 4-[3-(4-methoxyphenyl)imidazo[1,2-a]pyrazin-6-yl]phenol], 10.5 µM; that for `COc1cc(-c2cnc3cnc(-c4ccc(NCCN5CCOCC5)nc4)cn23)ccc1O` [388_0314_0003, 2-methoxy-4-[6-[6-(2-morpholinoethyl-amino)-3-pyridyl]imidazo [1,2-a]pyrazin-3-yl]phenol], 1.35 µM.

For `COc1cc(-c2cnc3cnc(-c4ccccc4N(C)C)cn23)ccc1O` [388_0314_0006, 4-[6-[2-(dimethylamino)phenyl]imidazo [1,2-a]pyrazin-3-yl]-2-methoxy-phenol], the IC50 was 1.75 µM. The same measure for `COc1cc(-c2cnc3cnc(-c4ccc(N5CCN(C)CC5)nc4)cn23)ccc1O` [388_0314_0016, 2-methoxy-4-[6-[6-(4-methylpiperazin-1-yl)-3-pyridyl]imidazo [1,2-a]pyrazin-3-yl]phenol]: 1.13 µM; for `COc1cc(-c2cnc3cnc(-c4cccnc4)cn23)ccc1O` [388_0314_0071, 2-methoxy-4-[6-(3-pyridyl)imidazo[1,2-a]pyrazin-3-yl]phenol]: 3.07 µM. In the case of `COc1cc(-c2cnc3cnc(-c4ccc(C(=O)NCCCN(C)C)cc4)cn23)ccc1O` [388_0314_0180, N-[3-(dimethylamino)propyl]-4-[3-(4-hydroxy-3-methoxy-phenyl)imidazo [1,2-a]pyrazin-6-yl]benzamide], the 50% inhibitory concentration (IC50) was determined as 0.606 µM.

As for `COc1cc(-c2cnc3cnc(-c4cccc(C(=O)NCCO)c4)cn23)ccc1O` [388_0314_0192, N-(2-hydroxyethyl)-3-[3-(4-hydroxy-3-methoxy-phenyl)imidazo [1,2-a]pyrazin-6-yl]benzamide], the IC50 was 0.896 µM. On to `CCOc1cccc(-c2cn3c(-c4ccc(O)c(OC)c4)cnc3cn2)c1` [388_0314_0205, 4-[6-(3-ethoxyphenyl)imidazo[1,2-a]pyrazin-3-yl]-2-methoxy-phenol], for which the IC50 is 1.36 µM.

(Values after patent US10688093B2, “Methods, compositions, and uses of novel Fyn kinase inhibitors” (priority 2015, dated 2020).)
